Assay: Free curcumin stability and consumption in the presence of AAPH (absorbance at 420 nm, HPLC)
Format: physicochemical
Method: Periodic samples were collected and read at 420 nm using a Cary 50 UV-Vis Microplate Reader spectroscopy instrument to monitor absorbance of solution over 24 hours.

time curcumin was stable in aqueous solution (no significant change in absorbance, no precipitation) (50 μg/mL curcumin in 0.1% (w/v) Tween 80 PBS (pH 7.4), 37° C., no AAPH): over 24 hours
time after which the amount of curcumin decreases to 20% (10 mM AAPH): 4 h
curcumin consumed (10 mM AAPH solution, within the first 8 hours): 90%
time after which the amount of curcumin decreases to 20% (100 mM AAPH): 0.333 h
time of finality of curcumin consumption, experimental (100 mM AAPH): 8 h
curcumin consumed (100 mM AAPH solution, within the first hour): 90%
curcuminoid consumption susceptibility by AAPH (HPLC peak) (versus demethoxycurcumin and bisdemethoxycurcumin, FIG. 3): diminished at a faster rate
SMILES: COc1cc(/C=C/C(=O)CC(=O)/C=C/c2ccc(O)c(OC)c2)ccc1O [Curcumin]
